From patent publication US20260272851A1, “FORMULATION COMPRISING APOCYNIN AND PAEONOL” (AKL Research & Development Ltd, priority 2022, published 2026)
Where “and” joins values, the source holds several entries; their conditions need not be identical. Equal entries are not always repeated.

How the values were obtained:
Type in all cases: cell-based
CDKN1A (p21) = CDKN1A (p21) relative mRNA expression by RT-PCR; conditions: primary human chondrocytes
Source text: CDKN1 (p21) is a genetic marker for cell senescence that codes for cyclin dependent kinase inhibitor 1A, a regulator of cell cycle progression. The expression of this gene is tightly controlled by the tumor suppressor protein p53. Activated p53 increases the expression of p21 which contributes to senescence. […] Cell-cycle arrest due to an increase in expression of genes that inhibit proliferation, the changes that occur in senescent cells can also result in the increased production of cytokines, growth factors, and matrix metalloproteinase (Loeser R F. Aging and osteoarthritis: the role of chondrocyte senescence and aging changes in the cartilage matrix. Osteoarthritis Cartilage. 2009 August; 17 (8): 971-9). Relative mRNA expression levels of CDKN1 were detected by quantitative real-time (RT)-PCR in presence of positive stimuli +/−10 μg/ml APPA. Data were obtained from eight independent donors. Values are presented as mean±SEM and analyzed by Mann Whitney test (*p≤0.05). RNA extraction was achieved using TRIzol® (Sigma-Aldrich), following the manufacturer's protocol. 0.5 μg of RNA was reversely transcribed into cDNA using Super Script VILO (Thermofisher Scientific, Waltham, Massachusetts, USA) following the manufacturer's instructions. RT-PCR was developed in a LightCycler 480-II Instrument (Roche, Mannheim, Germany) using TaqMan Universal Master Mix (Roche). Analysis of the results was carried out using Qbase+ version 2.5 software (Biogazelle, Ghent, Belgium). Gene expression was calculated relative to the housekeeping gene Glyceraldehyde-3-Phosphate Dehydrogenase (GAPDH). Relative mRNA expression levels of cyclin dependent kinase inhibitor 1A (CDKN1) were detected by quantitative real-time (RT)-PCR in the same manner as above. Data were obtained from six independent donors.

[1] = tested on: human TC28a2 chondrocyte cells; experiment: DRAQ7 chondrocyte viability assay (flow cytometry); conditions: 24 h
Description: A novel cell viability assay uses DRAQ7, a marker of apoptosis, necrosis and dead cells. DRAQ7 stains the nuclei in dead and permeabilised cells but not in intact live cells.
To determine the effects of APPA (10 μg/ml) AP (2.3 and 10 μg/ml) and PA (7.7 and 10 μg/ml) on chondrocyte viability, an assay based on DRAQ7™ (Thermo Fisher Scientific) was used. DRAQ7™ is a dye that can be used to show apoptosis, necrosis and dead cells, and the assay includes staining of nuclei in dead and permeabilised cells but not staining of intact live cells.
For the assay, cells were grown in flasks due to higher number of cells required. Following 24 h of different treatments, cells were trypsinised and centrifuged at 1500 rpm for 10 minutes (min). The harvested cells were suspended in 3 µM of the fluorescent dye DRAQ7™ (Thermo Fisher) and incubated in the dark, at room temperature (rt) for 10 min. The samples were run on CytoFLex flow cytometer (Beckman Coulter Inc. Ca, USA). At least 1×10^4 cells per assay were measured. Data were analysed using CyExpert V 2.5 software (Beckman Coulter Inc). […] To establish the position of DRAQ7− and DRAQ7+ gates, one of each negative and positive control was stained with DRAQ7 dye and the other with PBS alone (data not shown).

[2] = tested on: human TC28a2 chondrocyte cells; experiment: SA-β-Gal activity by FDG flow cytometry in TC28a2 cells exposed to IL-6 or etoposide; conditions: Basal = 1
Description: The immortalized human juvenile chondrocyte cell line T/C28a2 (25), was used in some experiments.
(§1) Cells were plated at a density of 5×10^4 cells/well in Corning® CellBIND® multiwell 96 plates (MW 96) (Corning, NY, USA) or 1.8×10^5 cells/well in MW 12 plates (Corning, NY, USA) for analysis. Cells were left to equilibrate overnight in DMEM at 5% or 2% of FBS in 5% CO2 at 37° C.
(§2) The effect of APPA on number of senescent cells was therefore evaluated by the quantification of β-galactosidase activity using flow cytometry. β-galactosidase activity was detected using fluorescein di-β-D-galactopyranoside (FDG; Thermo Fisher, Waltham, MA, USA) by flow cytometry. Non-fluorescent FDG is sequentially hydrolysed by β-galactosidase, first to fluorescein monogalactoside and then to highly fluorescent fluorescein. Enzyme-mediated hydrolysis of FDG can be followed by the increase in fluorescence.
These conditions were evaluated with and without 10 μg/ml APPA for 24 h. […] At the end of incubation, cultures were washed with PBS, resuspended by trypsinization and analysed immediately using a FACScalibour flow cytometer (Becton Dickinson). Data were acquired and analysed with Cellquest software (Becton Dickinson). Each fluorescein signal was measured on an FL1 detector and β-galactosidase activity was estimated using the median fluorescence intensity (arbitrary units) of the cell population.

[3] = tested on: primary human chondrocytes; experiment: SA-β-Gal levels by FDG flow cytometry in primary chondrocytes exposed to etoposide and OSM; conditions: for SA-β-Gal level (Mean ± SEM): Eto-20 μM + OSM = 1; for effect on SA-β-Gal levels, in words: Eto + OSM, AP 2.3 and 10 μg/ml, PA 7.7 and 10 μg/ml individually (FIG. 7b)
Source text: Chondrocytes from human OA hip cartilage, were isolated as described in (Maneiro E, Martin M A, de Andres M C, López-Armada M J, Fernandez-Sueiro J L, del Hoyo P, et al. Mitochondrial respiratory activity is altered in osteoarthritic human articular chondrocytes. Arthritis and rheumatism. 2003; 48 (3): 700-8)) from 18 patients from total hip arthroplasty (5 male and 13 female patients with a mean±SD age of 86±7.17, 79.71±13.56 years respectively)
Human articular chondrocytes and T/C28a2 cell line, were equilibrated overnight in Dulbecco's Modified Eagle Medium (DMEM) (Gibco, Grand Island, NY, USA) supplemented with 10% fetal bovine serum (FBS), penicillin (100 U/ml) and streptomycin (100 μg/ml) (Gibco) in a humidified 5% CO2 atmosphere at 37° C.
as §1, §2
These conditions were evaluated with and without 10 μg/ml APPA for 24 h. Fluorescein di-β-D-galactopyranoside (10 µM) was then added to the pretreatment medium. At the end of incubation, cultures were washed with PBS, resuspended by trypsinization and analysed immediately using a FACScalibour flow cytometer (Becton Dickinson). Data were acquired and analysed with Cellquest software (Becton Dickinson). Each fluorescein signal was measured on an FL1 detector and β-galactosidase activity was estimated using the median fluorescence intensity (arbitrary units) of the cell population.

BECN-1 = BECN-1 gene expression by RT-PCR; conditions: primary human chondrocytes; Eto + OSM + PA 7.7 μg/ml (FIG. 7d)
Description: RNA extraction was achieved using TRIzol® (Sigma-Aldrich), following the manufacturer's protocol. 0.5 μg of RNA was reversely transcribed into cDNA using Super Script VILO (Thermofisher Scientific, Waltham, Massachusetts, USA) following the manufacturer's instructions. RT-PCR was developed in a LightCycler 480-II Instrument (Roche, Mannheim, Germany) using TaqMan Universal Master Mix (Roche). Analysis of the results was carried out using Qbase+ version 2.5 software (Biogazelle, Ghent, Belgium). Gene expression was calculated relative to the housekeeping gene Glyceraldehyde-3-Phosphate Dehydrogenase (GAPDH). […] BECN-1 is a regulator of autophagy; the encoded protein, Beclin1, is a component of the phosphatidylinositol-3-kinase (PI3K) complex which mediates vesicle-trafficking processes. Autophagy is a self-degradative process that is important for balancing sources of energy at critical times during development and in response to cell stress. Although autophagy is not a type of cell death, it is important for cartilage homeostasis. […]

Compound	expression level of CDKN1A (p21) (Mean ± SEM) (CDKN1A (p21); Eto 20 μM + OSM 10 ng/ml + AP 2.3 μg/ml)	expression level of CDKN1A (p21) (Mean ± SEM) (CDKN1A (p21); Eto 20 μM + OSM 10 ng/ml + AP 10 μg/ml)	effect on CDKN1A (p21) expression, in words (CDKN1A (p21); Eto + OSM, AP at 2.3 and 10 μg/ml)	percentage of (non-viable) cells positive for DRAQ7 ([1]; human, 10 μg/ml)	SA-β-Gal level (Mean ± SEM) ([2]; Eto-5 μM + AP 2.3 μg/ml)	SA-β-Gal level (Mean ± SEM) ([2]; Eto-5 μM + AP 10 μg/ml)	SA-β-Gal level (Mean ± SEM) ([3]; Eto + OSM + AP-2.3 μg/ml)	SA-β-Gal level (Mean ± SEM) ([3]; Eto + OSM + AP-10 μg/ml)	effect on SA-β-Gal levels, in words [3]	expression level of CDKN1A (p21) (Mean ± SEM) (CDKN1A (p21); Eto 20 μM + OSM 10 ng/ml + 10 μg/ml (PA 10 μg/ml per text))	BECN-1 gene expression (BECN-1)	effect on cell viability (DRAQ7) ([1]; TC28a2, APPA 10, AP 2.3 and 10, PA 7.7 and 10 μg/ml)	SA-β-Gal level (Mean ± SEM) ([3]; Eto + OSM + PA-7.7 μg/ml)	SA-β-Gal level (Mean ± SEM) ([3]; Eto + OSM + PA-10 μg/ml)
COc1cc(C(C)=O)ccc1O [AP, 4-hydroxy-3-methoxyacetophenone]	1.0102 ± 0.25	1.617 ± 0.32	neither concentration of AP nor PA 7.7 μg/ml had any significant effect	5.05%	0.9191	0.8948	0.9947	1.01	no significant effects	–	–	–	–	–
COc1ccc(C(C)=O)c(O)c1 [PA, 2-hydroxy-4-methoxyacetophenone]	–	–	–	–	–	–	–	–	no significant effects	0.869 ±0.17 and 0.8635 ± 0.17	significantly counteracted	do not affect cell viability	0.9844	0.9622
